Experimental data from patent publication US20260297118A1, “SUBSTITUTED PYRIMIDINONE AND AZAPYRIMIDINONE COMPOUNDS, COMPOSITIONS, AND USES THEREOF” (LAKEWOOD AMEDEX, INC., priority 2023, published 2026).

Key:
Assay type in all cases: cell-based
E. faecium MMX-3355 = assay: MIC, broth microdilution, E. faecium MMX-3355; design: unit not given beside the values; settings: E. faecium MMX-3355, Gram +ve; pH 3; 18 to 24 hours
Method: (§1) MIC testing is conducted using the broth (Mueller Hinton Broth) microdilution procedures relevant to each organism group as established by the Clinical and Laboratory Standards Institute (CLSI; 3-7). MIC plates are prepared in accordance with CLSI (3-7). To prepare the test plates, automated liquid handlers are used to conduct serial dilutions and liquid transfers. Automated liquid handlers utilized in this study include the Multidrop 384 (Labsystems, Helsinki, Finland) and the Biomek 2000 (Beckman Coulter, Fullerton CA). The solution is diluted to desired pH using 1 M Citric Acid or 1 M NaOH buffer. A standardized inoculum of each test organism is prepared per CLSI methods (3, 5-7) to equal a 0.5 McFarland standard in the appropriate media followed by an additional 1:20 dilution (1:10 for anaerobes).
(§2) The plates are then inoculated with 10 μL of the diluted 0.5 McFarland suspension using the Biomek 2000 from low to high drug concentration, resulting in a final concentration of approximately 5×10^5 CFU/mL per well. An un-inoculated plate is incubated for the purpose of assessing solubility of the drug in the test media. The plates are stacked 3 to 4 high, covered with a sterile lid on the top plate, and incubated for 18 to 24 hours according to CLSI. The MIC is recorded as the lowest concentration of respective compound that inhibited visible growth of the organism.

[1] = tested on: A. radioresistens MMX-8551; assay: MIC, broth microdilution, A. radioresistens MMX-8551; design: unit not given beside the values; settings: A. radioresistens MMX-8551, Gram −ve; pH 3; 18 to 24 hours
Method: as §1, §2

E. faecalis MMX-3353 = assay: MIC, broth microdilution, E. faecalis MMX-3353; settings: E. faecalis MMX-3353, Gram +ve; pH 3; 18 to 24 hours
Method: as §1, §2

[2] = tested on: Pseudomonas aeruginosa (27853); assay: MIC, broth microdilution, Pseudomonas aeruginosa (27853); settings: pH 3, Mueller Hinton Broth, 18 to 24 hours, read-out: MIC
Method: as §1, §2

E. faecalis ATCC-29212 = assay: MIC, broth microdilution, E. faecalis ATCC-29212; design: unit not given beside the values; settings: E. faecalis ATCC-29212, Gram +ve; pH 3; 18 to 24 hours
Method: as §1, §2

S. agalactiae ATCC-13813 = assay: MIC, broth microdilution, S. agalactiae ATCC-13813; design: unit not given beside the values; settings: S. agalactiae ATCC-13813, Gram +ve; pH 3; 18 to 24 hours
Method: as §1, §2

Candida albicans (22972) = assay: MIC, broth microdilution, Candida albicans (22972); settings: pH 3, Mueller Hinton Broth, 18 to 24 hours, read-out: MIC
Method: as §1, §2

C. striatum ATCC-6940 = assay: MIC, broth microdilution, C. striatum ATCC-6940; settings: C. striatum ATCC-6940, Gram +ve; pH 3; 18 to 24 hours
Method: as §1, §2

E. coli ATCC-25922 = assay: MIC, broth microdilution, E. coli ATCC-25922; design: unit not given beside the values; settings: E. coli ATCC-25922, Gram −ve; pH 3; 18 to 24 hours
Method: as §1, §2

S. aureus ATCC-29213 = assay: MIC, broth microdilution, S. aureus ATCC-29213; design: unit not given beside the values; settings: S. aureus ATCC-29213, Gram +ve; pH 3; 18 to 24 hours
Method: as §1, §2

M. morganii CDC-0519 = assay: MIC, broth microdilution, M. morganii CDC-0519; design: unit not given beside the values; settings: M. morganii CDC-0519, Gram −ve; pH 3; 18 to 24 hours
Method: as §1, §2

K. pneumoniae ATCC-43816 = assay: MIC, broth microdilution, K. pneumoniae ATCC-43816; design: unit not given beside the values; settings: K. pneumoniae ATCC-43816, Gram −ve; pH 3; 18 to 24 hours
Method: as §1, §2

[3] = tested on: Staphylococcus aureus (43330); assay: MIC, broth microdilution, Staphylococcus aureus (43330); settings: pH 3, Mueller Hinton Broth, 18 to 24 hours, read-out: MIC
Method: as §1, §2

A. baumannii ATCC-19606 = assay: MIC, broth microdilution, A. baumannii ATCC-19606; design: unit not given beside the values; settings: A. baumannii ATCC-19606, Gram −ve; pH 3; 18 to 24 hours
Method: as §1, §2

[4] = tested on: S. saprophyticus ATCC-49907; assay: MIC, broth microdilution, S. saprophyticus ATCC-49907; design: unit not given beside the values; settings: S. saprophyticus ATCC-49907, Gram +ve; pH 3; 18 to 24 hours
Method: as §1, §2

[5] = tested on: S. dysgalactiae ATCC-6644; assay: MIC, broth microdilution, S. dysgalactiae ATCC-6644; design: unit not given beside the values; settings: S. dysgalactiae ATCC-6644, Gram +ve; pH 3; 18 to 24 hours
Method: as §1, §2

E. cloacae ATCC BAA-2468 = assay: MIC, broth microdilution, E. cloacae ATCC BAA-2468; design: unit not given beside the values; settings: E. cloacae ATCC BAA-2468, Gram −ve; pH 3; 18 to 24 hours
Method: as §1, §2

C. freundii CDC-0157 = assay: MIC, broth microdilution, C. freundii CDC-0157; design: unit not given beside the values; settings: C. freundii CDC-0157, Gram −ve; pH 3; 18 to 24 hours
Method: as §1, §2

S. pyogenes ATCC-49399 = assay: MIC, broth microdilution, S. pyogenes ATCC-49399; design: unit not given beside the values; settings: S. pyogenes ATCC-49399, Gram +ve; pH 3; 18 to 24 hours
Method: as §1, §2

H. influenzae ATCC-49247 = assay: MIC, broth microdilution, H. influenzae ATCC-49247; design: unit not given beside the values; settings: H. influenzae ATCC-49247, Gram −ve; pH 3; 18 to 24 hours
Method: as §1, §2

[6] = tested on: K. pneumoniae ATCC BAA-2146; assay: MIC, broth microdilution, K. pneumoniae ATCC BAA-2146; design: unit not given beside the values; settings: K. pneumoniae ATCC BAA-2146, Gram −ve; pH 3; 18 to 24 hours
Method: as §1, §2

S. aureus ATCC -3591 = assay: MIC, broth microdilution, S. aureus ATCC -3591; design: unit not given beside the values; settings: S. aureus ATCC -3591, Gram +ve; pH 3; 18 to 24 hours
Method: as §1, §2

P. aeruginosa ATCC-27853 = assay: MIC, broth microdilution, P. aeruginosa ATCC-27853; design: unit not given beside the values; settings: P. aeruginosa ATCC-27853, Gram −ve; pH 3; 18 to 24 hours
Method: as §1, §2

[7] = tested on: S. haemolyticus ATCC-29970; assay: MIC, broth microdilution, S. haemolyticus ATCC-29970; settings: S. haemolyticus ATCC-29970, Gram +ve; pH 3; 18 to 24 hours
Method: as §1, §2

E. faecium ATCC-35667 = assay: MIC, broth microdilution, E. faecium ATCC-35667; settings: E. faecium ATCC-35667, Gram +ve; pH 3; 18 to 24 hours
Method: as §1, §2

Escherichia coli (25922) = assay: MIC, broth microdilution, Escherichia coli (25922); settings: pH 3, Mueller Hinton Broth, 18 to 24 hours, read-out: MIC
Method: as §1, §2

P. mirabilis CDC-0155 = assay: MIC, broth microdilution, P. mirabilis CDC-0155; design: unit not given beside the values; settings: P. mirabilis CDC-0155, Gram −ve; pH 3; 18 to 24 hours
Method: as §1, §2

E. coli MMX-8870 = assay: MIC, broth microdilution, E. coli MMX-8870; settings: E. coli MMX-8870, Gram −ve; pH 3; 18 to 24 hours
Method: as §1, §2

Row | Compound | MIC (E. faecium MMX-3355) | MIC [1] | MIC (E. faecalis MMX-3353) | MIC [2] | MIC (E. faecalis ATCC-29212) | MIC (S. agalactiae ATCC-13813) | MIC (C. striatum ATCC-6940) | MIC (E. coli ATCC-25922) | MIC (S. aureus ATCC-29213) | MIC (M. morganii CDC-0519) | MIC (K. pneumoniae ATCC-43816) | MIC [3] | MIC (A. baumannii ATCC-19606) | MIC [4] | MIC [5] | MIC (E. cloacae ATCC BAA-2468) | MIC (C. freundii CDC-0157) | MIC (S. pyogenes ATCC-49399) | MIC (H. influenzae ATCC-49247) | MIC [6] | also measured
1 | CCCCOP(=O)(O)OC[C@H]1O[C@@H](n2ccc(N(C)C)nc2=O)C[C@@H]1O [LAI-008, butyl (((2R,3S,5R)-5-(4-(N,N-dimethylamino)-2-oxopyrimidin-1(2H)-yl)-3-hydroxytetrahydrofuran-2-yl)methyl) hydrogen phosphate] | 3.13 | 12.50 | 6.25 | 5000 µg/mL | 3.13 | 3.12 | 3.12 | 6.25 | 1.56 | 3.13 | 12.50 | 25000 µg/mL | 12.50 | 3.13 | 3.12 | 12.50 | 3.13 | 3.12 | 0.78 | 12.50 | MIC (Candida albicans (22972)): 50000 µg/mL; MIC (S. aureus ATCC -3591): 6.25; MIC (P. aeruginosa ATCC-27853): 5.63; MIC [7]: 0.39; MIC (E. faecium ATCC-35667): 3.13; MIC (Escherichia coli (25922)): 1000 µg/mL; MIC (P. mirabilis CDC-0155): 3.13; MIC (E. coli MMX-8870): 12.50
2 | CCCCOP(=O)(O)OC[C@H]1O[C@@H](n2ccc(N(C)C)nc2=O)[C@H](OC)[C@@H]1O [LAK-021, (2R,3S,4R,5R)-5-(4-N,N-dimethylamino-2-oxopyrimidin-1(2H)-yl)-3-hydroxy-4-methoxy-tetrahydrofuran-2-methyl butyl phosphate] | 3.13 | 1.56 | 3.13 | 800 µg/mL | 3.13 | 0.78 | 0.78 | 0.78 | 3.13 | 1.56 | 1.56 | 4500 µg/mL | 1.56 | 1.56 | 0.78 | 1.56 | 1.56 | 0.78 | 0.39 | 1.56 | MIC (Candida albicans (22972)): > 50000 µg/mL; MIC (S. aureus ATCC -3591): 6.25; MIC (P. aeruginosa ATCC-27853): 0.78; MIC [7]: 3.13; MIC (E. faecium ATCC-35667): 3.13; MIC (Escherichia coli (25922)): 1250 µg/mL; MIC (P. mirabilis CDC-0155): 1.56; MIC (E. coli MMX-8870): 1.56
3 | CCCCOP(=O)(O)OC[C@@H]1CC[C@H](n2ccc(N)nc2=O)O1 [LAI-007, ((2S,5R)-5-(4-amino-2-oxopyrimidin-1(2H)-yl)tetrahydrofuran-2-yl)methyl butyl hydrogen phosphate] | 6.25 | 6.25 | 6.25 | 5000 µg/mL | 6.25 | 1.56 | 1.56 | 6.25 | 6.25 | 3.13 | 12.50 | 5000 µg/mL | 6.25 | 3.13 | 12.50 | 6.25 | 3.13 | 3.13 | 1.56 | 6.25 | MIC (S. aureus ATCC -3591): 6.25; MIC (P. aeruginosa ATCC-27853): 8.75; MIC [7]: 6.25; MIC (E. faecium ATCC-35667): 6.25; MIC (Escherichia coli (25922)): 25000 µg/mL; MIC (P. mirabilis CDC-0155): 3.13; MIC (E. coli MMX-8870): 12.50
4 | CCCCOP(=O)(O)OC[C@H]1O[C@@H](n2ccc(N(C)C)nc2=O)C(F)(F)[C@@H]1O [LAK-023, (2R,3S,5R)-5-(4-N,N-dimethylamino-2-oxopyrimidin-1(2H)-yl)-2,2-difluoro-3-hydroxytetrahydrofuranyl-2-methyl butyl phosphate] | 1.56 | 0.78 | 6.25 | 400 µg/mL | 3.13 | 0.39 | 1.56 | 0.78 | 1.56 | 3.13 | 1.56 | 3800 µg/mL | 0.78 | 1.56 | 0.78 | 0.78 | 1.56 | 1.56 | 0.39 | 0.78 | MIC (Candida albicans (22972)): > 12500 µg/mL; MIC (S. aureus ATCC -3591): 6.25; MIC (P. aeruginosa ATCC-27853): 0.39; MIC [7]: 0.78; MIC (E. faecium ATCC-35667): 3.13; MIC (Escherichia coli (25922)): 800 µg/mL; MIC (P. mirabilis CDC-0155): 1.56; MIC (E. coli MMX-8870): 0.78
5 | CCCCOP(=O)(O)OC[C@H]1O[C@@H](n2ccc(N)nc2=O)C(F)(F)[C@@H]1O [LAI-006, ((2R,3R,5R)-5-(4-amino-2-oxopyrimidin-1(2H)-yl)-4,4-difluoro-3-hydroxytetrahydrofuran-2-yl)methyl butyl hydrogen phosphate] | 3.13 | 0.39 | 3.13 | 800 µg/mL | 0.39 | 0.10 | 0.78 | 0.39 | 1.56 | 3.13 | 0.78 | 2300 µg/mL | 0.39 | 0.10 | 0.05 | 0.39 | 3.13 | 0.39 | 0.78 | 0.78 | MIC (Candida albicans (22972)): 50000 µg/mL; MIC (S. aureus ATCC -3591): 3.13; MIC (P. aeruginosa ATCC-27853): 0.78; MIC [7]: 0.10; MIC (E. faecium ATCC-35667): 1.56; MIC (Escherichia coli (25922)): 600 µg/mL; MIC (P. mirabilis CDC-0155): 3.13; MIC (E. coli MMX-8870): 0.78
